Results as given in EP4603105A1, “PHARMACEUTICAL COMPOSITION CONTAINING CYCLIC COMPOUND HAVING SELECTIVE KRAS INHIBITORY EFFECT AGAINST HRAS AND NRAS” (CHUGAI SEIYAKU KABUSHIKI KAISHA, priority 2022, dated 2024).
pIC50: −log10 of the molar value. Where a SMILES comes first, the peptide text is derived from it. Bridges are numbered along the chain shown (N, C = ends). [ ]: non-standard residue; d: D form. The star is where a group is joined. hPhe(3-Cl-4-CF3) = N[C@@H](CCc1ccc(C(F)(F)F)c(Cl)c1)C(=O)O; NPrPhe(4-CF3) = CCCN[C@@H](Cc1ccc(C(F)(F)F)cc1)C(=O)O; NPrPhe(4-Me) = CCCN[C@@H](Cc1ccc(C)cc1)C(=O)O; NMeGly(cPent) = CN[C@H](C(=O)O)C1CCCC1; Hyp = O=C(O)[C@@H]1C[C@@H](O)CN1; NMeD = CN[C@@H](CC(=O)O)C(=O)O; NMeL = CN[C@@H](CC(C)C)C(=O)O; Morpholide = C1CN(*)CCO1; NMeA = CN[C@@H](C)C(=O)O; Ac5c = NC1(C(=O)O)CCCC1; Aze = O=C(O)[C@@H]1CCN1; Ac4c = NC1(C(=O)O)CCC1; Sar = CNCC(=O)O

How the values were obtained:
[1] = target: GDP-bound NRAS wild-type protein (Homo sapiens, UniProt P01111); assay: Binding to NRAS by surface plasmon resonance (SPR), KD and KD ratio to KRAS
Sequence of GDP-bound NRAS wild-type protein (P01111 whole entry): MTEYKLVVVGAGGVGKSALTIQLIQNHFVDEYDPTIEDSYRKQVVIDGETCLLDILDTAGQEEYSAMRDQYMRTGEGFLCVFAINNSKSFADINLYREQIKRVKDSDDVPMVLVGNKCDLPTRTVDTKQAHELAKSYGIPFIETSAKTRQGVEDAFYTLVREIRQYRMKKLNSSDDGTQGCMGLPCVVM
In short: (§1)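 Captured GDP-RAS (~100–300 RU) was exposed to increasing compound concentrations, 75 s per step, in running buffer with 10 µM GDP, 10 mM MgCl2 and 4% DMSO at pH 7.4.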

[2] = target: HRAS wild-type protein (Homo sapiens, UniProt P01112); assay: Binding to HRAS by surface plasmon resonance (SPR), KD and KD ratio to KRAS
Sequence of HRAS wild-type protein (P01112 whole entry): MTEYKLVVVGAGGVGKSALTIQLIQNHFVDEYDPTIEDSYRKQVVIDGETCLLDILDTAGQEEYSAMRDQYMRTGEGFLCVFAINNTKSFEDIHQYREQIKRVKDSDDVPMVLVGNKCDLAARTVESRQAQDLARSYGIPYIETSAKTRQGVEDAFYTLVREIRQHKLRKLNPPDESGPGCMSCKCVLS
In short: as §1

[3] = system: human lung cancer strain NCI-H441; type: cell-based
In short: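 Step one: dispense the test compound in serial DMSO dilutions. Step three: add the reagent and measure […].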

[4] = ratio of KD value for GDP-bound NRAS wild-type protein to KD value for KRAS (SPR)
[5] = ratio of KD value for HRAS wild-type protein to KD value for KRAS (SPR)
[6] = ratio of KD for GDP-bound NRAS wild-type protein to KD for KRAS
[7] = ratio of KD for HRAS wild-type protein to KD for KRAS
[8] = ratio of the KD value with respect to GDP-bound NRAS wild-type protein to the KD value with respect to KRAS
[9] = ratio of the KD value with respect to HRAS wild-type protein to the KD value with respect to KRAS

Row | SMILES | pIC50 [3] | NRAS /KRAS [1, 4] | HRAS /KRAS [2, 5] | NRAS /KRAS [1, 6] | HRAS /KRAS [2, 7] | NRAS /KRAS [1, 8] | HRAS /KRAS [2, 9]
1 | CCO[C@@H]1C[C@H]2C(=O)NC3(CC(F)(F)C3)C(=O)N(C)[C@@H](C(CC)CC)C(=O)N(C)C(C(C)C)CC(=O)N(C)[C@@H](CC)C(=O)N[C@@H]([C@@H](C)CC)C(=O)N(C)CC(=O)N(C)[C@H]3C/C=C\CCN(C3=O)[C@@H](Cc3ccc(C(F)(F)F)cc3)C(=O)N(C)CC(=O)N[C@@H](CCc3cc(F)c(C(F)(F)F)c(F)c3)C(=O)N2C1 (stereo partly drawn) [PP1591] | 7.07 | A (a compound having 10 or more and less than 20 is denoted as A) | A (a compound having 10 or more and less than 20 is denoted as A) |  |  |  | 
2 | CCCN1C(=O)[C@@H]2CCN2C(=O)CN(C)C(=O)[C@H]([C@@H](C)CC)NC(=O)[C@H](CC(C)C)N(C)C(=O)C[C@@H](C(=O)N2CCOCC2)NC(=O)[C@H](C2CCCC2)N(C)C(=O)C2(CCC2)NC(=O)[C@@H]2CCCN2C(=O)[C@H](CCc2ccc(C(F)(F)F)c(Cl)c2)NC(=O)CN(C)C(=O)[C@@H]1Cc1ccc(C(F)(F)F)cc1 [PP0350] ([NMeL]I[Sar][Aze][NPrPhe(4-CF3)][Sar][hPhe(3-Cl-4-CF3)]P[Ac4c][NMeGly(cPent)]D-Morpholide; lactam N-11) | 7.16 |  |  | C (A compound having a KD ratio of 0.1 or more and less than 3 is denoted as C) | B (a compound having 3 or more and less than 10 is denoted as B) |  | 
3 | CCC[C@H]1C(=O)N[C@@H]([C@@H](C)CC)C(=O)N(C)CC(=O)N(C)[C@H]2C/C=C\CCN(C2=O)[C@@H](Cc2ccc(C)cc2)C(=O)N(C)CC(=O)N[C@@H](CCc2ccc(Cl)c(OC)c2)C(=O)N2C[C@H](OCC)C[C@H]2C(=O)NC2(CC(C)(C)C2)C(=O)N(C)[C@@H](C2CCCC2)C(=O)N(C)[C@H](C(=O)N(C)C)CC(=O)N1C [PP2790] | 7.23 |  |  | A (a compound having 10 or more and less than 20 is denoted as A) | A (a compound having 10 or more and less than 20 is denoted as A) |  | 
4 | CCO[C@@H]1C[C@H]2C(=O)NC3(CC(C)(C)C3)C(=O)N(C)[C@@H](C3CCCC3)C(=O)N(C)[C@H](C(=O)N(C)CC)CC(=O)N(C)[C@@H](CC)C(=O)N[C@@H]([C@@H](C)CC)C(=O)N(C)CC(=O)N(C)[C@H]3C/C=C\CCN(C3=O)[C@@H](Cc3ccc(C(F)(F)F)cc3)C(=O)N(C)CC(=O)N[C@@H](CCc3ccc(C(F)(F)F)c(Cl)c3)C(=O)N2C1 [PP2823] | 8.12 |  |  | A (a compound having 10 or more and less than 20 is denoted as A) | A (a compound having 10 or more and less than 20 is denoted as A) |  | 
5 | CCC[C@H]1C(=O)N[C@@H]([C@@H](C)CC)C(=O)N(C2CC2)CC(=O)N(C)[C@H]2C/C=C\CCN(C2=O)[C@@H](Cc2ccc(C)cc2)C(=O)N(C)CC(=O)N[C@@H](CCc2cc(F)c(Cl)c(OC)c2)C(=O)N2C[C@H](OCC)C[C@H]2C(=O)NC2(CC(C)(C)C2)C(=O)N(C)[C@@H](C2CCCC2)C(=O)N(C)[C@H](C(=O)N(C)C)CC(=O)N1C [PP2871] | 7.55 |  |  | A (a compound having 10 or more and less than 20 is denoted as A) | A (a compound having 10 or more and less than 20 is denoted as A) |  | 
6 | CCCN1C(=O)CN(C)C(=O)CNC(=O)[C@H]([C@@H](C)CC)NC(=O)[C@H](CC(C)C)N(C)C(=O)C[C@@H](C(=O)N2CCOCC2)N(C)C(=O)[C@H](C2CCCC2)N(C)C(=O)C2(CCC2)NC(=O)[C@@H]2C[C@@H](OCC)CN2C(=O)[C@H](CCc2ccc(C(F)(F)F)c(Cl)c2)NC(=O)CN(C)C(=O)[C@@H]1Cc1ccc(C(F)(F)F)cc1 [PP0397] ([NMeL]IG[Sar][NPrPhe(4-CF3)][Sar][hPhe(3-Cl-4-CF3)][Hyp](Et)[Ac4c][NMeGly(cPent)][NMeD]-Morpholide; lactam N-11) | 9.15 |  |  |  |  | C (A compound having a KD ratio of 0.1 or more and less than 3 is denoted as C) | C (A compound having a KD ratio of 0.1 or more and less than 3 is denoted as C)

Further compounds by rising pIC50 [3], results first:

Row | pIC50 [3] | SMILES | NRAS /KRAS [1, 4] | HRAS /KRAS [2, 5] | NRAS /KRAS [1, 6] | HRAS /KRAS [2, 7] | NRAS /KRAS [1, 8] | HRAS /KRAS [2, 9]
7 | 6.71 | CC[C@H](C)[C@@H]1NC(=O)[C@H](CC(C)C)N(C)C(=O)C[C@@H](C(=O)N2CCOCC2)N(C)C(=O)[C@H](C2CCCC2)N(C)C(=O)C2(CCCC2)NC(=O)[C@@H]2CCCN2C(=O)[C@H](CCc2ccc(C(F)(F)F)c(Cl)c2)NC(=O)CN(C)C(=O)[C@H](Cc2ccc(OC(F)(F)F)cc2)N2CC=CC[C@@H](C2=O)N(C)C(=O)CN(C)C1=O [PP0537] |  |  |  |  | C (A compound having a KD ratio of 0.1 or more and less than 3 is denoted as C) | C (A compound having a KD ratio of 0.1 or more and less than 3 is denoted as C)
8 | 7.97 | CC[C@H](C)[C@@H]1NC(=O)[C@H](C(C)C)N(C)C(=O)C[C@@H](C(=O)N(C)C)N(C)C(=O)[C@H](C2CCCC2)N(C)C(=O)C2(CC(C)(C)C2)NC(=O)[C@@H]2C[C@H](C)CN2C(=O)[C@H](CCc2ccc(C(F)(F)F)c(OC)c2)NC(=O)CN(C)C(=O)[C@H](Cc2ccc(C(F)(F)F)cc2)N2CC/C=C\C[C@@H](C2=O)N(C)C(=O)CN(C)C1=O [PP2005] |  |  |  |  | A (a compound having 10 or more and less than 20 is denoted as A) | A (a compound having 10 or more and less than 20 is denoted as A)
9 | 7.99 | CCO[C@@H]1C[C@H]2C(=O)NC3(CCC3)C(=O)N(C)[C@@H](C3CCCC3)C(=O)N(C)[C@H](C(=O)N(C)C)CC(=O)N(C)[C@@H](CC)C(=O)N[C@@H]([C@@H](C)CC)C(=O)N(C)CC(=O)N(C)[C@H]3CCCCCN(C3=O)[C@@H](Cc3ccc(F)cc3C)C(=O)N(C)CC(=O)N[C@@H](CCc3cc(F)c(C(F)(F)F)c(F)c3)C(=O)N2C1 [PP0911] |  |  | B (a compound having 3 or more and less than 10 is denoted as B) | B (a compound having 3 or more and less than 10 is denoted as B) |  | 
10 | 8.59 | CC[C@H](C)[C@@H]1NC(=O)[C@H](CC2CC2)N(C)C(=O)C[C@@H](C(=O)N(C)CC)N(C)C(=O)[C@H](C2CCCC2)N(C)C(=O)C2(CC(C)(C)C2)NC(=O)[C@@H]2C[C@@H](F)CN2C(=O)[C@H](CCc2cc(F)c(C(F)(F)F)c(F)c2)NC(=O)CN(C)C(=O)[C@H](Cc2ccc(C(F)(F)F)cc2)N2CC/C=C\C[C@@H](C2=O)N(C)C(=O)CN(C)C1=O [PP1570] | AA (a compound having 20 or more is denoted as AA) | A (a compound having 10 or more and less than 20 is denoted as A) |  |  |  | 
11 | 8.62 | CC[C@H](C)[C@@H]1NC(=O)[C@H](CC(C)C)N(C)C(=O)C[C@@H](C(=O)N(C)C)N(C)C(=O)[C@H](C2CCCC2)N(C)C(=O)C2(CCC2)NC(=O)[C@@H]2CC(F)(F)CN2C(=O)[C@H](CCc2cc(F)c(C(F)(F)F)c(F)c2)NC(=O)CN(C)C(=O)[C@H](Cc2ccc(C(F)(F)F)cc2)N2CCCC[C@@H](C2=O)N(C)C(=O)CN(C)C1=O [PP0577] |  |  |  |  | C (A compound having a KD ratio of 0.1 or more and less than 3 is denoted as C) | C (A compound having a KD ratio of 0.1 or more and less than 3 is denoted as C)
12 | 8.77 | CCCN1C(=O)[C@@H]2CCN2C(=O)[C@H](C)N(C)C(=O)[C@H]([C@@H](C)CC)NC(=O)[C@H](CC(C)C)N(C)C(=O)C[C@@H](C(=O)N2CCOCC2)N(C)C(=O)[C@H](C2CCCC2)N(C)C(=O)C2(CCCC2)NC(=O)[C@@H]2CCCN2C(=O)[C@H](CCc2ccc(C(F)(F)F)c(Cl)c2)NC(=O)CN(C)C(=O)[C@@H]1Cc1ccc(C)cc1 [PP0052] ([NMeL]I[NMeA][Aze][NPrPhe(4-Me)][Sar][hPhe(3-Cl-4-CF3)]P[Ac5c][NMeGly(cPent)][NMeD]-Morpholide; lactam N-11) |  |  | C (A compound having a KD ratio of 0.1 or more and less than 3 is denoted as C) | B (a compound having 3 or more and less than 10 is denoted as B) |  | 
